Test results from patent US10004701B2, “Methods and compositions for treating infection” (UNIVERSITY OF ROCHESTER, priority 2012, dated 2018).
Structures can show the parent of a compound that is named as a salt. Where two headings read alike, the source gives them in different places.

Tests used:
Experiment in all cases: AK assay 384-well format, Prestwick library screening
[1] = system: E. faecium; type: cell-based, Enterococcus faecium; settings: Enterococcus faecium, 3 h, 50 μM final drug concentration
[2] = system: S. aureus strain USA300-0114; type: cell-based, Staphylococcus aureus; settings: Staphylococcus aureus, USA300, 3 h, 50 μM final drug concentration
[3] = system: K. pneumoniae; type: cell-based, Klebsiella pneumoniae; settings: Klebsiella pneumoniae, 3 h, 50 μM final drug concentration
[4] = system: A. baumannii strain 98-37-09; type: cell-based, Acinetobacter baumannii; settings: Acinetobacter baumannii, 983709, 3 h, 50 μM final drug concentration
[5] = system: P. aeruginosa; type: cell-based, Pseudomonas aeruginosa; settings: Pseudomonas aeruginosa, 3 h, 50 μM final drug concentration
[6] = system: E. cloacae; type: cell-based, Enterobacter cloacae; settings: Enterobacter cloacae, 3 h, 50 μM final drug concentration
[7] = system: E. coli; type: cell-based, Escherichia coli; settings: Escherichia coli, 3 h, 50 μM final drug concentration
[8] = planktonic, cutoff for positive 3-fold increase, read-out: AK-based Prestwick Library Screening Results, E. faecium (fold increase in extracellular AK activity)
[9] = planktonic, cutoff for positive 3-fold increase, read-out: AK-based Prestwick Library Screening Results, S. aureus (fold increase in extracellular AK activity)
[10] = planktonic, cutoff for positive 3-fold increase, read-out: AK-based Prestwick Library Screening Results, K. pneumoniae (fold increase in extracellular AK activity)
[11] = planktonic, cutoff for positive 3-fold increase, read-out: AK-based Prestwick Library Screening Results, A. baumannii (fold increase in extracellular AK activity)
[12] = planktonic, cutoff for positive 3-fold increase, read-out: AK-based Prestwick Library Screening Results, P. aeruginosa (fold increase in extracellular AK activity)
[13] = planktonic, cutoff for positive 3-fold increase, read-out: AK-based Prestwick Library Screening Results, E. cloacae (fold increase in extracellular AK activity)
[14] = planktonic, cutoff for positive 3-fold increase, read-out: AK-based Prestwick Library Screening Results, E. coli (fold increase in extracellular AK activity)
[15] = planktonic E. faecium, 384-well, cutoff for positive-scoring molecules 3-fold increase, read-out: AK-based Prestwick Library Screening Results: E. faecium (increase in extracellular AK activity)
[16] = planktonic S. aureus, 384-well, cutoff for positive-scoring molecules 3-fold increase, read-out: AK-based Prestwick Library Screening Results: S. aureus (increase in extracellular AK activity)
[17] = planktonic K. pneumoniae, 384-well, cutoff for positive-scoring molecules 3-fold increase, read-out: AK-based Prestwick Library Screening Results: K. pneumoniae (increase in extracellular AK activity)
[18] = planktonic A. baumannii, 384-well, cutoff for positive-scoring molecules 3-fold increase, read-out: AK-based Prestwick Library Screening Results: A. baumannii (increase in extracellular AK activity)
[19] = planktonic P. aeruginosa, 384-well, cutoff for positive-scoring molecules 3-fold increase, read-out: AK-based Prestwick Library Screening Results: P. aeruginosa (increase in extracellular AK activity)
[20] = planktonic E. cloacae, 384-well, cutoff for positive-scoring molecules 3-fold increase, read-out: AK-based Prestwick Library Screening Results: E. cloacae (increase in extracellular AK activity)
[21] = planktonic E. coli, 384-well, cutoff for positive-scoring molecules 3-fold increase, read-out: AK-based Prestwick Library Screening Results: E. coli (increase in extracellular AK activity)
[22] = 384-well format, cutoff for positive-scoring molecules 3-fold increase, read-out: AK-based Prestwick Library Screening Results, E. faecium (increase in extracellular AK activity)
[23] = 384-well format, cutoff for positive-scoring molecules 3-fold increase, read-out: AK-based Prestwick Library Screening Results, S. aureus (increase in extracellular AK activity)
[24] = 384-well format, cutoff for positive-scoring molecules 3-fold increase, read-out: AK-based Prestwick Library Screening Results, K. pneumoniae (increase in extracellular AK activity)
[25] = 384-well format, cutoff for positive-scoring molecules 3-fold increase, read-out: AK-based Prestwick Library Screening Results, A. baumannii (increase in extracellular AK activity)
[26] = 384-well format, cutoff for positive-scoring molecules 3-fold increase, read-out: AK-based Prestwick Library Screening Results, P. aeruginosa (increase in extracellular AK activity)
[27] = 384-well format, cutoff for positive-scoring molecules 3-fold increase, read-out: AK-based Prestwick Library Screening Results, E. cloacae (increase in extracellular AK activity)
[28] = 384-well format, cutoff for positive-scoring molecules 3-fold increase, read-out: AK-based Prestwick Library Screening Results, E. coli (increase in extracellular AK activity)

## COc1ccc(CN2CCNCC2)c(OC)c1OC [Trimetazidine dihydrochloride]
[1]; [8]
  fold induction at 50 µM: 1
[2]; [9]
  fold induction at 50 µM: 1.2
[3]; [10]
  fold induction at 50 µM: 1.1
[4]; [11]
  fold induction at 50 µM: 1.2
[5]; [12]
  fold induction at 50 µM: 1.1
[6]; [13]
  fold induction at 50 µM: 1.7
[7]; [14]
  fold induction at 50 µM: 1.4

## CN1C(=O)OC(C)(C)C1=O [Trimethadione]
[1]; planktonic E. faecium, cutoff for positive-scoring molecules 3-fold increase, read-out: AK-based Prestwick Library Screening Results, E. faecium (increase in extracellular AK activity)
  fold induction at 50 µM: 0.9
[2]; planktonic S. aureus, cutoff for positive-scoring molecules 3-fold increase, read-out: AK-based Prestwick Library Screening Results, S. aureus (increase in extracellular AK activity)
  fold induction at 50 µM: 0.7
[3]; planktonic K. pneumoniae, cutoff for positive-scoring molecules 3-fold increase, read-out: AK-based Prestwick Library Screening Results, K. pneumoniae (increase in extracellular AK activity)
  fold induction at 50 µM: 0.7
[4]; planktonic A. baumannii, cutoff for positive-scoring molecules 3-fold increase, read-out: AK-based Prestwick Library Screening Results, A. baumannii (increase in extracellular AK activity)
  fold induction at 50 µM: 0.9
[5]; planktonic P. aeruginosa, cutoff for positive-scoring molecules 3-fold increase, read-out: AK-based Prestwick Library Screening Results, P. aeruginosa (increase in extracellular AK activity)
  fold induction at 50 µM: 0.8
[6]; planktonic E. cloacae, cutoff for positive-scoring molecules 3-fold increase, read-out: AK-based Prestwick Library Screening Results, E. cloacae (increase in extracellular AK activity)
  fold induction at 50 µM: 1.4
[7]; planktonic E. coli, cutoff for positive-scoring molecules 3-fold increase, read-out: AK-based Prestwick Library Screening Results, E. coli (increase in extracellular AK activity)
  fold induction at 50 µM: 1

## COc1cc(C(=O)NCc2ccc(OCCN(C)C)cc2)cc(OC)c1OC [Trimethobenzamide hydrochloride]
[1]; [15]
  fold induction at 50 µM: 1.1
[2]; [16]
  fold induction at 50 µM: 1.2
[3]; [17]
  fold induction at 50 µM: 1.1
[4]; [18]
  fold induction at 50 µM: 1.2
[5]; [19]
  fold induction at 50 µM: 1
[6]; [20]
  fold induction at 50 µM: 1.3
[7]; [21]
  fold induction at 50 µM: 1.2

## COc1cc(Cc2cnc(N)nc2N)cc(OC)c1OC [Trimethoprim]
[1]; [15]
  fold induction at 50 µM: 1.1
[2]; [16]
  fold induction at 50 µM: 1
[3]; [17]
  fold induction at 50 µM: 0.8
[4]; [18]
  fold induction at 50 µM: 3.1
[5]; [19]
  fold induction at 50 µM: 1.1
[6]; [20]
  fold induction at 50 µM: 7.2
[7]; [21]
  fold induction at 50 µM: 1.2

## COc1cc2c(c(OC)c1OC)-c1ccc(O)c(=O)cc1C(N)CC2 (stereo not drawn) [Trimethylcolchicinic acid]
[1]; planktonic E. faecium, […], read-out: AK-based Prestwick Library Screening Results, E. faecium (increase in extracellular AK activity)
  fold induction at 50 µM: 1.2
[2]; planktonic S. aureus, […], read-out: AK-based Prestwick Library Screening Results, S. aureus (increase in extracellular AK activity)
  fold induction at 50 µM: 0.6
[3]; planktonic K. pneumoniae, […], read-out: AK-based Prestwick Library Screening Results, K. pneumoniae (increase in extracellular AK activity)
  fold induction at 50 µM: 0.7
[4]; planktonic A. baumannii, […], read-out: AK-based Prestwick Library Screening Results, A. baumannii (increase in extracellular AK activity)
  fold induction at 50 µM: 1
[5]; planktonic P. aeruginosa, […], read-out: AK-based Prestwick Library Screening Results, P. aeruginosa (increase in extracellular AK activity)
  fold induction at 50 µM: 0.7
[6]; planktonic E. cloacae, […], read-out: AK-based Prestwick Library Screening Results, E. cloacae (increase in extracellular AK activity)
  fold induction at 50 µM: 0.8
[7]; planktonic E. coli, […], read-out: AK-based Prestwick Library Screening Results, E. coli (increase in extracellular AK activity)
  fold induction at 50 µM: 0.8

## Cc1cc2cc3c(C)cc(=O)oc3c(C)c2o1 [Trioxsalen]
[1]; cutoff for positive-scoring molecules 3-fold increase, read-out: AK-based Prestwick Library Screening Results, E. faecium (fold increase in extracellular AK activity)
  fold induction at 50 µM: 0.9
[2]; cutoff for positive-scoring molecules 3-fold increase, read-out: AK-based Prestwick Library Screening Results, S. aureus (fold increase in extracellular AK activity)
  fold induction at 50 µM: 0.9
[3]; cutoff for positive-scoring molecules 3-fold increase, read-out: AK-based Prestwick Library Screening Results, K. pneumoniae (fold increase in extracellular AK activity)
  fold induction at 50 µM: 1
[4]; cutoff for positive-scoring molecules 3-fold increase, read-out: AK-based Prestwick Library Screening Results, A. baumannii (fold increase in extracellular AK activity)
  fold induction at 50 µM: 1.2
[5]; cutoff for positive-scoring molecules 3-fold increase, read-out: AK-based Prestwick Library Screening Results, P. aeruginosa (fold increase in extracellular AK activity)
  fold induction at 50 µM: 1
[6]; cutoff for positive-scoring molecules 3-fold increase, read-out: AK-based Prestwick Library Screening Results, E. cloacae (fold increase in extracellular AK activity)
  fold induction at 50 µM: 1.3
[7]; cutoff for positive-scoring molecules 3-fold increase, read-out: AK-based Prestwick Library Screening Results, E. coli (fold increase in extracellular AK activity)
  fold induction at 50 µM: 1.2

## Cc1ccc(/C(=C\CN2CCCC2)c2ccccn2)cc1 [Triprolidine hydrochloride]
[1]; [22]
  fold induction at 50 µM: 1
[2]; [23]
  fold induction at 50 µM: 0.6
[3]; [24]
  fold induction at 50 µM: 0.7
[4]; [25]
  fold induction at 50 µM: 0.9
[5]; [26]
  fold induction at 50 µM: 1
[6]; [27]
  fold induction at 50 µM: 1
[7]; [28]
  fold induction at 50 µM: 1

## CO[C@H]1C[C@H](O[C@H]2[C@H](C)[C@@H](O[C@@H]3O[C@H](C)C[C@H](N(C)C)[C@H]3OC(C)=O)[C@@H](C)C[C@@]3(CO3)C(=O)[C@H](C)[C@@H](OC(C)=O)[C@@H](C)[C@@H](C)OC(=O)[C@@H]2C)O[C@@H](C)[C@@H]1OC(C)=O [Troleandomycin]
[1]; [22]
  fold induction at 50 µM: 1
[2]; [23]
  fold induction at 50 µM: 6.5
[3]; [24]
  fold induction at 50 µM: 0.6
[4]; [25]
  fold induction at 50 µM: 0.8
[5]; [26]
  fold induction at 50 µM: 0.7
[6]; [27]
  fold induction at 50 µM: 1.1
[7]; [28]
  fold induction at 50 µM: 0.9

## Cc1c(C)c2c(c(C)c1O)CCC(C)(C(=O)O)O2 (stereo not drawn) [Trolox]
[1]; [8]
  fold induction at 50 µM: 1.1
[2]; [9]
  fold induction at 50 µM: 1.6
[3]; [10]
  fold induction at 50 µM: 1.1
[4]; [11]
  fold induction at 50 µM: 1.1
[5]; [12]
  fold induction at 50 µM: 1.1
[6]; [13]
  fold induction at 50 µM: 1.6
[7]; [14]
  fold induction at 50 µM: 1.1
